Molecular target: T1, Recombinant full length human OGA enzyme (Homo sapiens, UniProt O60502)
T1 construct: Recombinant full length human OGA enzyme; purchased Origene
T1 sequence (O60502 1-916): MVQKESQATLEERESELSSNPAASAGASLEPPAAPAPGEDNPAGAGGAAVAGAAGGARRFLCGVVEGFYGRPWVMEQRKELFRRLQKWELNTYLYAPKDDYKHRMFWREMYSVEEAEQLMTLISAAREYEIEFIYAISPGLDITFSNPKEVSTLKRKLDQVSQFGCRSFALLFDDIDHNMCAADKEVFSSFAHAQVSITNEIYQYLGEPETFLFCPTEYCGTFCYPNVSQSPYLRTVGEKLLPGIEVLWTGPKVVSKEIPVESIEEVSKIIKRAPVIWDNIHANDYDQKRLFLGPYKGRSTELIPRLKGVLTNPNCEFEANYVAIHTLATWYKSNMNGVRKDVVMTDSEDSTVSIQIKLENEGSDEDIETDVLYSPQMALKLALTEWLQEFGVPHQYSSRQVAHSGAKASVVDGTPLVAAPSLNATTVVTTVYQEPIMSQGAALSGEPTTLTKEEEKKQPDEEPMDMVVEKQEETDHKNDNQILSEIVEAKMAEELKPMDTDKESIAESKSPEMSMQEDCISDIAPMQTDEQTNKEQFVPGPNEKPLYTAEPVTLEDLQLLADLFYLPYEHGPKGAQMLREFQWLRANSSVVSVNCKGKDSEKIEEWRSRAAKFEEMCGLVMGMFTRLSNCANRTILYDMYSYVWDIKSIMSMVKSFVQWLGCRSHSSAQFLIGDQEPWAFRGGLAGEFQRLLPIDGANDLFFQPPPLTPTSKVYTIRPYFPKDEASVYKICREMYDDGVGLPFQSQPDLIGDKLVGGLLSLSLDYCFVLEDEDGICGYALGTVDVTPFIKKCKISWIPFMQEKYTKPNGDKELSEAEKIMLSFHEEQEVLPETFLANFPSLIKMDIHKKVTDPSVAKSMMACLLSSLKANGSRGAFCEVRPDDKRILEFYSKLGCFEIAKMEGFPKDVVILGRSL
Assay: OGA Enzyme Inhibition Biochemical Assay
Details: 1 nM OGA, 100 μM 4-MUGlcNAc (Km), pH 6.4, 90 minutes at room temperature, 10-point dose-response starting from 20 μM
Description: OGA Enzyme Inhibition Biochemical Assay
Recombinant full length human OGA enzyme was purchased from Origene. 4-MUGlCNAc substrate was purchased from Sigma. All other reagents were purchased from Sigma or Fisher. Assay buffer consists of the Mcllvaine buffer system, pH 6.4 (0.2M Na2HPO4 mixed with 0.1M citric acid) and 0.01% BSA. Reactions consist of 1 nM OGA, 100 μM 4-MUGlcNAc (Km), and compound in a final volume of 10 μl. Reactions were incubated for 90 minutes at room temperature and quenched with […] of 3M glycine, pH 10 and read on a Perkin Elmer Envision plate reader (Ex: 355 nm/Em: 460 nm). Compounds were tested with a 10-point dose-response starting from 20 μM with a 4-fold dilution. Data was fit using GraphPad Prism using a 4-parameter fit with variable slope.

Compound | IC50
CC(=O)Nc1ncc(CN2C[C@H](Oc3ccc(C#N)cn3)[C@H]2C)s1 [Example 2-32, N-(5-(((2R,3S)-3-((5-cyanopyridin-2-yl)oxy)-2-methylazetidin-1-yl)methyl)thiazol-2-yl)acetamide] | 980 nM
CC(=O)Nc1ncc(CN2C[C@H](Oc3ncc(F)cn3)[C@H]2C)s1 [Example 2-33, N-(5-(((2R,3S)-3-((5-fluoropyrimidin-2-yl)oxy)-2-methylazetidin-1-yl)methyl)thiazol-2-yl)acetamide] | 390 nM
CC(=O)Nc1ncc(CN2CC(NCc3cc(C)nc(C)c3)C2)s1 [Example 3-1, N-(5-((3-(((2,6-dimethylpyridin-4-yl)methyl)amino)azetidin-1-yl)methyl)thiazol-2-yl)acetamide] | 91 nM
COc1cc(CNC2CN(Cc3cnc(NC(C)=O)s3)C2)ccn1 [Example 3-2, N-(5-((3-(((2-methoxypyridin-4-yl)methyl)amino)azetidin-1-yl)methyl)thiazol-2-yl)acetamide] | 210 nM
CCOc1cc(CC2CN(Cc3cnc(NC(C)=O)s3)C2)ccn1 [Example 4-1, N-(5-((3-((2-ethoxypyridin-4-yl)methyl)azetidin-1-yl)methyl)thiazol-2-yl)acetamide] | 47 nM
CC(=O)Nc1ncc(CN2CC(Cc3ccccc3)C2)s1 [Example 4-2, N-(5-((3-benzylazetidin-1-yl)methyl)thiazol-2-yl)acetamide] | 580 nM
CC(=O)Nc1ncc(CN2CC(c3ncc(F)cn3)C2)s1 [Example 5-1] | 350 nM
CC(=O)Nc1ncc(CN2CC(c3ncnc4sccc34)C2)s1 [Example 5-2] | 194 nM
N-(5-43-(((5-methyl-1,2,4-oxadiazol-3-yl)methyl)amino)azetidin-1-yl)methyl)thiazol-2-yl)acetamide [Example 3-3] | 900 nM
